Test results taken from US12648571B2, “Compositions including antimicrobial polymer-peptide conjugates and uses thereof” (University of Puerto Rico, priority 2020, dated 2026).
No end group written: not given here.

Legend:
E. coli (ATCC 25922) = type: cell-based, Escherichia coli; conditions: for Minimum Inhibition Concentration (MIC): 24 hours, 1.0×10^8 CFU/mL; for kind of antibacterial effect (growth curves): peptides: after 12 hours of growth; for bacterial growth (growth curves): up to 24 hours, 37° C.
Source text: (§1) To determine the antimicrobial activity of the peptides against the pathogenic bacteria P. aeruginosa (ATCC 27853)22 and E. coli (ATCC 25922)23, the following materials were used: Costar 96-well plates Flat Bottom (Sterile Low Evaporation Lid, Corning, USA.), Calgary Biofilm Device (Innovotech Inc.), Glycerol 100% purity. The nutrient agar and broth used were BBL TSA II Trypticase Soy Agar (TSA) and BBL Trypticase Soy Broth (TSB) and were purchased from Becton, Dickinson and Company (BD).
(§2) For these assays, bacteria of interest were thawed, and serial cultured to reach optimal metabolic activity after being defrosted. Optical Density (O.D.) measured with a Genesys 10S UV-VIS Spectrophotometer (O.D.600 nm) was utilized as a measure of bacterial concentration, 1.0×10^8 CFU/mL, as standardized and approved by the Clinical and Laboratory Standards Institute (CLSI).^28 The final concentration of the solvent (vehicle control) was DMSO 10%.
(§3) To create growth curves of the bacteria with and without peptides and to determine the lowest concentration in which these antimicrobial peptides present inhibition of bacterial growth, Minimum Inhibition Concentration (MIC) testing was carried out. After thawing and incubating at 37° C. for 24 hours, and after achieving target O.D., the bacteria were placed on the 96-well plate with lid together with the peptides in various concentrations. Finally, the 96-well plate was taken to the Synergy H1TM Hybrid Multi-Mode Microplate Reader to observe and study the antibacterial effect of the peptides at 37° C. during different time points (0.5 h, 5 h, 12 h, 18 h and 24 h). This process that was used in the same in the evaluation of growth using the MH5C-Cys.

[1] = Dynamic Light Scattering (DLS) of peptides in solution; type: physicochemical; conditions: 1.0 mg/mL in DMSO/np water 20% v/v; for Polydispersity Index (PDI): individual peak method
Method: To determine the stability of the peptide in solution, DLS was conducted for both peptides (MH5C and MH5C-Cys).
AMPs were dissolved in DMSO and nanopure water (DMSO/np water mixture; 20% v/v) with the final concentration at 1.0 mg/mL. First the samples were ultra-centrifuged (29,100 rpm, 1 hour at 20° C.) and later the size average of these biomolecules was studied in solution using a Malvern Zetasizer Nano instrument (4 mW 632.8 nm laser). The individual peak method was used to determine the Polydispersity Index (PdI).

[2] = Circular Dichroism (CD) spectroscopy, secondary structure (K2D3); type: physicochemical; conditions: 90 μM, TFE/np water 50% v/v, 20° C.
Method: Circular Dichroism spectra were recorded on a Jasco J-1500 CD Spectrometer (Jasco, Inc., Easton, MD). Both peptides (MH5C, MH5C-Cys) were dissolved according to the protocol published by Dennison et al. (2015) with 2,2,2-Trifluoroethanol and np water (TFE/np water mixture; 50% v/v) as co-solvent for this peptide.^26 The final concentration was set to 90 μM and the samples were ultra-centrifuged (29,100 rpm) for 1 hour at 20° C. Subsequently, 400 μL of the supernatant of each peptide was added to a rectangular quartz cell with 1 mm path length to evaluate secondary structures. The wavelength ranged from 250-190 nm and scanning speed was 50 nm/min at 20° C. The data obtained were triplicated and then averaged for each sample. In addition, the thermodynamics and unfolding of peptides was studied with this equipment. This technique was used to observe the secondary structure at wavelength complete spectra as a function of temperature.^27 The temperature range from 20° C. to 90° C. was used.
For the secondary structure estimation, the K2D3 method was utilized as described elsewhere.^40 After obtaining the data, a predictive method that utilizes the information from the database Protein Data Bank (PDB) was employed. With this information, a theoretical prediction of CD, known as DichroCalc was obtained.^41 Then, the method K2D3 was utilized, which can predict secondary structures of peptides and proteins in recorded wavelengths between 200 nm to 240 nm in a non-redundant form. The results of these calculations are the predicted percentages for alpha-helix and beta-strand content.^40 The following equation was employed for this prediction:^42

[3] = test system: P. aeruginosa (ATCC 27853); type: cell-based, Pseudomonas aeruginosa; conditions: for Minimum Inhibition Concentration (MIC): 24 hours, 1.0×10^8 CFU/mL; for kind of antibacterial effect (growth curves): peptides: after 12 hours of growth; for bacterial growth (growth curves): up to 24 hours, 37° C.
Source text: as §1, §2, §3

[4] = Zeta potential of peptides; type: physicochemical; conditions: sample pH 4.5 (MH5C), 5.9 (MH5C-Cys)
Method: Likewise, zeta potential was conducted in order to determine the overall charge of the modified and unmodified peptide. The zeta potential is highly dependent on the pH as it directly affects the overall charge of the colloidal species. Therefore, it was of interest to know the isoelectric point of the peptides. Using ExPASy ProtParam tool (https://web.expasy.org/protparam/), the theoretical isoelectric points of MH5C and MH5C-Cys, were determined at 3.42 in both cases. In this study the pH of each sample, MH5C was 4.5 and 5.9 for the MH5C-Cys. This is an important condition for the stability of the formulation, as no precipitation will occur under the conditions of the experiment.^36 MH5C had positive zeta potential values (46.6±0.9) compared to the MH5C-Cys (−94±4).

P. aeruginosa biofilm [5] = assay: MBIC assay (Calgary Biofilm Device); type: cell-based, Pseudomonas aeruginosa; conditions: 90 μM and 300 μM
Method: (§4) MBIC (Minimum Biofilm Inhibitory Concentration) was determined by the adherence assay using the Calgary Biofilm Device (Innovotech Inc.). In this assay, the bacteria and compounds (MH5C-Cys and both PEG conjugates) were placed together in the assay plate for 72 h to allow growth. Afterwards, CFU (Colony Forming Unit) and optical density measurements for each well were recorded at 650 nm and clear wells and growth inhibition curves were taken as evidence of biofilm inhibition.

P. aeruginosa biofilm [6] = type: cell-based, Pseudomonas aeruginosa; conditions: for Minimum Biofilm Eradication Concentration (MBEC): 24 h challenge
Method: (§5) The assay was conducted according to the MBEC protocol as supplied by the manufacturer. Inoculum of each bacterium was prepared in TSB (Tryptic Soy Broth) to a final density of 1.0×10^6. In each well of the 96 well plate, 150 of the inoculated media was transferred. Assay plates were placed in an incubator for 72 h to allow growth and comparison of biofilms was performed for each bacteria strain. After 72 h, the PEG lid of the MBEC assay was transferred to a ‘challenge’ plate. Essentially, serial dilutions of each conjugated (4 kDa and 7 kDa), antimicrobial peptide, and PEG polymers were prepared in TSB to a final volume in the well plates of 200 μL (control and conjugates at 90 μM, 300 μM, and 500 μM). After exposure of the biofilm to the antimicrobial challenge for 24 h, the PEG lid was removed from the challenge plate, and the optical density measurements for each plate were recorded at 650 nm. Clear wells were taken as evidence of biofilm eradication, and MBEC values were assigned as the lowest concentration at which no growth was observed after 24 h of incubation.^31-32

E. coli biofilm [7] = type: cell-based, Escherichia coli; conditions: for Minimum Biofilm Eradication Concentration (MBEC): 24 h challenge
Method: as §5

E. coli biofilm [8] = assay: MBIC assay (Calgary Biofilm Device); type: cell-based, Escherichia coli; conditions: 90 μM and 300 μM
Method: as §4

Substance	Minimum Inhibition Concentration (MIC) (E. coli (ATCC 25922)) [µM]	kind of antibacterial effect (growth curves) (E. coli (ATCC 25922))	bacterial growth (growth curves) (E. coli (ATCC 25922))	average apparent hydrodynamic diameter [1] [nm·days]	Polydispersity Index (PDI) [1]	α helix structure [2] [%]	β strand structure [2] [%]	Minimum Inhibition Concentration (MIC) [3] [µM]	kind of antibacterial effect (growth curves) [3]	bacterial growth (growth curves) [3]	zeta potential [4]	inhibition of biofilm formation (MBIC assay, CFU) (P. aeruginosa biofilm [5])	time during which bacterial growth was not allowed (MBEC assay) (P. aeruginosa biofilm [6]) [h]	Minimum Biofilm Eradication Concentration (MBEC) (P. aeruginosa biofilm [6]) [µM]	time during which bacterial growth was not allowed (MBEC assay) (E. coli biofilm [7]) [h]	Minimum Biofilm Eradication Concentration (MBEC) (E. coli biofilm [7]) [µM]	inhibition of biofilm formation (MBIC assay, CFU) (E. coli biofilm [8])	kind of effect in MBEC assay (P. aeruginosa biofilm [6]; 90 μM, 180 μM and 300 μM, 24 h)	kind of effect in MBEC assay (E. coli biofilm [7]; 90 μM and 300 μM, 24 h)
ILGPVLGLVSDTLDDVLGIL-OH [MH5C]	90	bacteriostatic effect	did not allow bacterial growth	0.72 ± 0.11	0.03	95.22	0.02	90	bacteriostatic effect	did not allow bacterial growth	46.6±0.9								
ILGPVLGLVSDTLDDVLGILC-OH [MH5C-Cys]	90	bacteriostatic effect	did not allow bacterial growth	0.52 ± 0.44	0.01	95.36	0.02	90	bacteriostatic effect	did not allow bacterial growth	−94±4	does not possess a significant inhibition	8 to 10	500	8 to 10	500	does not possess a significant inhibition		
KRWRIRVRVIRKC [Tet-20, KRWRIRVRVIRKC]	15							40						300		300		bactericidal effect	bactericidal effect
